For three molecules, Ki results are on record in patent publication US7449462B2, “Triazole derivatives which inhibit vasopressin antagonistic activity” (Pfizer, Inc., priority 2004, dated 2008).

The Ki is the equilibrium dissociation constant of an inhibitor or competing ligand from its target. A high value points to weaker binding.

In this test the target is T1, human V1A receptor (Homo sapiens, UniProt P37288).
T1 construct: expressed in transfected cells; host or cells: CHO cells (CHO-hV1A line provided by Marc Thibonnier, Case Western Reserve University)
T1 sequence (P37288 whole entry): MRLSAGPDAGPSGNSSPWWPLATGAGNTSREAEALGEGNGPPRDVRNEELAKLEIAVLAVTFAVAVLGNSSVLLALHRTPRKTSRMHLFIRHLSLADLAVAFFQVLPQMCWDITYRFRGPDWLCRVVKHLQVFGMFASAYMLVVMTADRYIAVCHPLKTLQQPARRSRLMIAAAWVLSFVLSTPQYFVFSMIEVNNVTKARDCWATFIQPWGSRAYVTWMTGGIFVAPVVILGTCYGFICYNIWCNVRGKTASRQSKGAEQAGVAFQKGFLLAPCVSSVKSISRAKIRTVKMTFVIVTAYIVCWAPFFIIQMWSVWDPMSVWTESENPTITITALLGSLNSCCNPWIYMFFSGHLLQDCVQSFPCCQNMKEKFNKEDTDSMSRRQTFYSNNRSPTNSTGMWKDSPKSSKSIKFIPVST
The experiment in a line: V1A filter binding assay (screen 1.0), [3H]-AVP binding to CHO-hV1A membranes. Conditions: [3H]-AVP displacement, membranes of CHO cells stably expressing the human V1A receptor; Cheng-Prusoff. As to the method:
1.0 V1A Filter Binding Assay
Receptor binding assays were performed on cellular membranes prepared from CHO cells stably expressing the human V1A receptor, (CHO-hV1A). The CHO-hV1A cell line was kindly provided under a licensing agreement by Marc Thibonnier, Dept. of Medicine, Case Western Reserve University School of Medicine, Cleveland, Ohio. CHO-hV1A cells were routinely maintained at 37° C. in humidified atmosphere with 5% CO2 in DMEM/Hams F12 nutrient mix supplemented with 10% fetal bovine serum, 2 mM L-glutamine, 15 mM HEPES and 400 μg/ml G418. […] Confluent CHO-hV1A cells were washed with phosphate-buffered saline (PBS), harvested into ice cold PBS and centrifuged at 1,000 rpm. Cell pellets were stored at −80° C. until use. Cell pellets were thawed on ice and homogenised in membrane preparation buffer consisting of 50 mM Tris-HCl, pH 7.4, 5 mM MgCl2 and supplemented with a protease inhibitor cocktail, (Roche). […] The remaining pellet was homogenised and centrifuged as before. The supernatants were pooled and centrifuged at 25,000×g for 30 min at 4° C. The pellet was resuspended in freezing buffer consisting of 50 mM Tris-HCl, pH 7.4, 5 mM MgCl2 and 20% glycerol and stored in small aliquots at −80° C. until use. Protein concentration was determined using Bradford reagent and BSA as a standard. […]
Compounds were tested for their effects on [^3H]-AVP binding to CHO-hV1A membranes, (^3H-AVP; specific activity 65.5 Ci/mmol; NEN Life Sciences). […] The plates were sealed and counted on a TopCount Microplate Scintillation Counter (Packard Instruments). […] The radioligand binding data was analysed using a four parameter logistic equation with the min forced to 0%. […] Specific binding was calculated by subtracting the mean NSB cpm from the mean Total cpm. […] The inhibitory dissociation constant (Ki) was calculated using the Cheng-Prusoff equation: Ki=IC50/(1+[L]/Kd) where [L] is the concentration of ligand present in the well and Kd is the dissociation constant of the radioligand obtained from Scatchard plot analysis.
With `Cc1cc(Cl)ccc1-n1c(C)nnc1C1CCN(c2ccccn2)CC1` [Example 9, 4-[4-(4-Chloro-2-methyl-phenyl)-5-methyl-4H-[1,2,4]triazol-3-yl]-3,4,5,6-tetrahydro-2H-[1,2′]bipyridinyl], the Ki turned out to be 3.32 nM. The molecule `Cc1cc(Cl)ccc1-n1c(Cn2nccn2)nnc1C1CCN(c2ccccn2)CC1` [Example 15, 4-[4-(4-Chloro-2-methyl-phenyl)-5-[1,2,3]triazol-2-ylmethyl-4H-[1,2,4]triazol-3-yl]-3,4,5,6-tetrahydro-2H-[1,2′]bipyridinyl] showed a Ki of 0.86 nM. The figure for `Clc1ccc(-n2c(Cn3nccn3)nnc2C2CCN(c3ccccn3)CC2)cc1` [Example 17, 4-[4-(4-Chloro-phenyl)-5-[1,2,3]triazol-2-ylmethyl-4H-[1,2,4]triazol-3-yl]-3,4,5,6-tetrahydro-2H-[1,2′]bipyridinyl] is 0.47 nM.
